These results are taken from patent US12583870B2, “Azaheteroaryl compound and application thereof” (SHANGHAI BLUERAY BIOPHARMA CO., LTD., priority 2019, dated 2026).

The target in test [1] is T1, EED protein (His6-tagged full-length) binding to H3K27me3 polypeptide (Homo sapiens, UniProt O75530).
T1 construct: His6-tagged full-length EED protein (441 amino acids)
Nature of the test: AlphaScreen evaluation of blocking the binding of EED to H3K27Me3. The note with it: EED 60 nM, biotinylated H3K27me3 75 nM, 30 minutes incubation. Summed up: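 His6-tagged full-length EED (60 nM working stock) and biotin-H3K27me3 peptide aa 19–33 (75 nM working stock) incubated 30 min RT with 9-point 3-fold compound series in 25 mM HEPES pH 8.0, 50 mM NaCl, 0.015% Tween 20, 0.5% BSA. Ni-chelate acceptor and streptavidin donor beads (5 μg/mL each), 1 h dark; IC50 from dose-response fit. Biotin-(His)6 counterscreen checked signal interference.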

The next test deals with KARPAS-422 cells. Nature of the test: Cell proliferation analysis, KARPAS-422, 13 days, CellTiter-Glo. Type of test: cell-based. Particulars: Homo sapiens, 312 h. Summed up: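 KARPAS-422 cells were treated with PRC2 inhibitors over 9 three-fold dilutions from 10 μM top (0.5% DMSO, duplicates) in RPMI-1640 with 15% FBS at 37 °C. Every 3–4 days cells were counted and reseeded at 1×10^4/well with fresh compound. Viability was read by CellTiter-Glo luminescence on day 13.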

The test system of test [2] is trimethylation level of histone H3K27 in G401 cells. Kind of test: ELISA (H3K27 trimethylation) analysis in G401 cells. Type of test: cell-based. Particulars: Homo sapiens, G-401, 72 hours, H3K27me3 standardized to H3. In short, it runs like this:
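Cells exposed 72 h to 10-point 3-fold dilutions, top 10 μM, 0.5% final DMSO. Acid-extracted histones assayed by ELISA (ECL) for H3K27me3, normalized to total H3 and to DMSO control; IC50 from dose-response fit.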

T1 sequence (O75530 whole entry): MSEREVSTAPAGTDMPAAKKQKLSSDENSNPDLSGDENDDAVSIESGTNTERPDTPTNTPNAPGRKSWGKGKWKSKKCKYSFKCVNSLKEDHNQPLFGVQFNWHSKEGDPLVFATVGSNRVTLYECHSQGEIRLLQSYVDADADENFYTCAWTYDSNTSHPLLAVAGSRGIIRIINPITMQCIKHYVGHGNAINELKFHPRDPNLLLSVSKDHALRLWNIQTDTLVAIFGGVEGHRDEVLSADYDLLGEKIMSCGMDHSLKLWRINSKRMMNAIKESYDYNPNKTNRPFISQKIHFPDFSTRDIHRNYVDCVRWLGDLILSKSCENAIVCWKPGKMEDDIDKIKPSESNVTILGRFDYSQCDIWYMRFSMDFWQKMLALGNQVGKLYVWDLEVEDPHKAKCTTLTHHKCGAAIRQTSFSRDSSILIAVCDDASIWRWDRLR

For `Fc1ccc2c(c1CNc1ncc(-c3ccc4nncn4c3)c3nncn13)[C@H]1C[C@H]1O2` [8-([1,2,4]triazolo[4,3-a]pyridin-6-yl)-N-(((1aR,6bR)-5-fluoro-1a,6b-dihydro-1H-cyclopropa[b]benzofuran-6-yl)methyl)-[1,2,4]triazolo[4,3-c]pyrimidin-5-amine], the figures for the IC50 (in test [1]; in the test with KARPAS-422 cells; in test [2]) were 0.0042 µM, 0.0431 µM and 0.0064 µM, respectively.

Turning to `Fc1ccc2c(c1CNc1ncc(-c3cccn4cnnc34)c3nncn13)[C@H]1C[C@H]1O2` [8-([1,2,4]triazolo[4,3-a]pyridin-8-yl)-N-(((1aR,6bR)-5-fluoro-1a,6b-dihydro-1H-cyclopropa[b]benzofuran-6-yl)methyl)-[1,2,4]triazolo[4,3-c]pyrimidin-5-amine], the IC50 in test [1] is 0.0095 µM; with KARPAS-422 cells, 0.0048 µM; in test [2], 0.0074 µM.

With `Fc1ccc2c(c1CNc1ncc(-c3cccc4ncoc34)c3nncn13)CCO2` [8-(benzo[d]oxazol-7-yl)-N-((5-fluoro-2,3-dihydrobenzofuran-4-yl)methyl)-[1,2,4]triazolo[4,3-c]pyrimidin-5-amine], the figures for the concentration for half-maximal inhibition (IC50) (in test [1]; in the test on KARPAS-422 cells; in test [2]) were 0.0049 µM, 0.0136 µM and 0.013 µM, respectively.

In the case of `Cc1ccc(-c2cnc(NCc3c(F)ccc4c3CCO4)n3cnnc23)c2nc(CO)cn12` [(8-(5-(((5-fluoro-2,3-dihydrobenzofuran-4-yl)methyl)amino)-[1,2,4]triazolo[4,3-c]pyrimidin-8-yl)-5-methylimidazo[1,2-a]pyridin-2-yl)methanol], the IC50 in test [1] came out at 0.0083 µM; in the test with KARPAS-422 cells, 0.0033 µM; in test [2] it was 0.0014 µM.

As to `OCc1ccc(-c2cnc(NCc3c(F)ccc4c3CCO4)n3cnnc23)c2nccn12` [(8-(5-(((5-fluoro-2,3-dihydrobenzofuran-4-yl)methyl)amino)-[1,2,4]triazolo[4,3-c]pyrimidin-8-yl)imidazo[1,2-a]pyridin-5-yl)methanol], the results for the IC50 (in test [1]; with KARPAS-422 cells; in test [2]) were 0.021 µM, 0.0086 µM and 0.0052 µM, respectively.

Take `CCOC(=O)c1cnc2c(-c3cnc(NCc4c(F)ccc5c4CCO5)n4cnnc34)cccn12` [Ethyl 8-(5-(((5-fluoro-2,3-dihydrobenzofuran-4-yl)methyl)amino)-[1,2,4]triazolo[4,3-c]pyrimidin-8-yl)imidazo[1,2-a]pyridine-3-carboxylate]: the IC50 worked out at 0.0023 µM in test [1], 0.004 µM in the test with KARPAS-422 cells and 0.006 µM in test [2].

Regarding `COC(=O)Cc1cnc2c(-c3cnc(NCc4c(F)ccc5c4CCO5)n4cnnc34)ccc(C)n12` [Methyl 2-(8-(5-(((5-fluoro-2,3-dihydrobenzofuran-4-yl)methyl)amino)-[1,2,4]triazolo[4,3-c]pyrimidin-8-yl)-5-methylimidazo[1,2-a]pyridin-3-yl)acetate], the IC50 amounted to 0.0062 µM in test [1], 0.001 µM in the test with KARPAS-422 cells and 0.0038 µM in test [2].

As to `COC(=O)c1ccc(-c2cnc(NCc3c(F)ccc4c3CCO4)n3cnnc23)c2nccn12` [Methyl 8-(5-(((5-fluoro-2,3-dihydrobenzofuran-4-yl)methyl)amino)-[1,2,4]triazolo[4,3-c]pyrimidin-8-yl)imidazo[1,2-a]pyridine-5-carboxylate], the IC50 in test [1] amounted to 0.008 µM; in the test on KARPAS-422 cells it was 0.0051 µM; in test [2] it was 0.0035 µM.

With `Cn1cnc2c(-c3cnc(NCc4c(F)ccc5c4CCO5)n4cnnc34)cccc21` [N-((5-fluoro-2,3-dihydrobenzofuran-4-yl)methyl)-8-(1-methyl-1H-benzo[d]imidazol-4-yl)-[1,2,4]triazolo[4,3-c]pyrimidin-5-amine], the IC50 came to 0.0086 µM in test [1], 0.0016 µM in the test on KARPAS-422 cells and 0.0013 µM in test [2].

Regarding `Fc1ccc2c(c1CNc1ncc(-c3cccn4cc(C(F)(F)F)nc34)c3nncn13)CCO2` [N-((5-fluoro-2,3-dihydrobenzofuran-4-yl)methyl)-8-(2-(trifluoromethyl)imidazo[1,2-a]pyridin-8-yl)-[1,2,4]triazolo[4,3-c]pyrimidin-5-amine], the concentration for half-maximal inhibition (IC50) came out at 0.0035 µM in test [1], 0.0017 µM with KARPAS-422 cells and 0.0024 µM in test [2].

Regarding `Cc1nc2c(-c3cnc(NCc4c(F)ccc5c4CCO5)n4cnnc34)cccc2o1` [N-((5-fluoro-2,3-dihydrobenzofuran-4-yl)methyl)-8-(2-methylbenzo[d]oxazol-4-yl)-[1,2,4]triazolo[4,3-c]pyrimidin-5-amine], the IC50 stood at 0.0092 µM in test [1], 0.0042 µM in the test with KARPAS-422 cells and 0.0078 µM in test [2].

Consider `Cc1cn2cccc(-c3cnc(NCc4c(F)ccc5c4CCO5)n4cnnc34)c2n1` [N-((5-fluoro-2,3-dihydrobenzofuran-4-yl)methyl)-8-(2-methylimidazo[1,2-a]pyridin-8-yl)-[1,2,4]triazolo[4,3-c]pyrimidin-5-amine], for which the results for the IC50 (in test [1]; in the test on KARPAS-422 cells; in test [2]) were 0.0141 µM, 0.0024 µM and 0.003 µM, respectively.

Regarding `Cc1ccc(-c2cnc(NCc3c(F)ccc4c3CCO4)n3cnnc23)c2ncc(C(C)C)n12` [N-((5-fluoro-2,3-dihydrobenzofuran-4-yl)methyl)-8-(3-isopropyl-5-methylimidazo[1,2-a]pyridin-8-yl)-[1,2,4]triazolo[4,3-c]pyrimidin-5-amine], the IC50 in test [1] was found to be 0.0028 µM; with KARPAS-422 cells it was 0.001 µM; in test [2], 0.0007 µM.

As to `Cc1cnc2c(-c3cnc(NCc4c(F)ccc5c4CCO5)n4cnnc34)cccn12` [N-((5-fluoro-2,3-dihydrobenzofuran-4-yl)methyl)-8-(3-methylimidazo[1,2-a]pyridin-8-yl)-[1,2,4]triazolo[4,3-c]pyrimidin-5-amine], the figures for the IC50 (in test [1]; in the test on KARPAS-422 cells; in test [2]) were 0.0046 µM, 0.0014 µM and 0.0016 µM, respectively.

`Cc1ccc(-c2cnc(NCc3c(F)ccc4c3CCO4)n3cnnc23)c2nccn12` [N-((5-fluoro-2,3-dihydrobenzofuran-4-yl)methyl)-8-(5-methylimidazo[1,2-a]pyridin-8-yl)-[1,2,4]triazolo[4,3-c]pyrimidin-5-amine]: the IC50 in test [1] was determined as 0.0058 µM; in the test on KARPAS-422 cells it was 0.0013 µM; in test [2] it was 0.0013 µM.

Consider `Fc1cc(-c2cnc(NCc3c(F)ccc4c3CCO4)n3cnnc23)c2nc(C(F)(F)F)cn2c1` [N-((5-fluoro-2,3-dihydrobenzofuran-4-yl)methyl)-8-(6-fluoro-2-(trifluoromethyl)imidazo[1,2-a]pyridin-8-yl)-[11,2,4]triazolo[4,3-c]pyrimidin-5-amine], for which the results for the IC50 (in test [1]; in the test on KARPAS-422 cells; in test [2]) were 0.0023 µM, 0.0095 µM and 0.0171 µM, respectively.

On to `Cc1cn2cc(F)cc(-c3cnc(NCc4c(F)ccc5c4CCO5)n4cnnc34)c2n1` [N-((5-fluoro-2,3-dihydrobenzofuran-4-yl)methyl)-8-(6-fluoro-2-methylimidazo[1,2-a]pyridin-8-yl)-[1,2,4]triazolo[4,3-c]pyrimidin-5-amine], for which the figures for the IC50 (in test [1]; with KARPAS-422 cells; in test [2]) were 0.003 µM, 0.0013 µM and 0.0035 µM, respectively.

As to `Cc1cnc2c(-c3cnc(NCc4c(F)ccc5c4CCO5)n4cnnc34)cc(F)cn12` [N-((5-fluoro-2,3-dihydrobenzofuran-4-yl)methyl)-8-(6-fluoro-3-methylimidazo[1,2-a]pyridin-8-yl)-[1,2,4]triazolo[4,3-c]pyrimidin-5-amine], the values for the IC50 (in test [1]; in the test with KARPAS-422 cells; in test [2]) were 0.0074 µM, 0.004 µM and 0.0057 µM, respectively.

As for `Fc1cc(-c2cnc(NCc3c(F)ccc4c3CCO4)n3cnnc23)c2nccn2c1` [N-((5-fluoro-2,3-dihydrobenzofuran-4-yl)methyl)-8-(6-fluoroimidazo[1,2-a]pyridin-8-yl)-[1,2,4]triazolo[4,3-c]pyrimidin-5-amine], the IC50 was found to be 0.0049 µM in test [1], 0.002 µM in the test on KARPAS-422 cells and 0.0029 µM in test [2].

`Cc1cc(-c2cnc(NCc3c(F)ccc4c3CCO4)n3cnnc23)c2nccn2c1` [N-((5-fluoro-2,3-dihydrobenzofuran-4-yl)methyl)-8-(6-methylimidazo[1,2-a]pyridin-8-yl)-[1,2,4]triazolo[4,3-c]pyrimidin-5-amine]: the IC50 is 0.0243 µM in test [1], 0.0116 µM with KARPAS-422 cells and 0.014 µM in test [2].

As for `Fc1ccc2c(c1CNc1ncc(-c3ccc4nccn4c3)c3nncn13)CCO2` [N-((5-fluoro-2,3-dihydrobenzofuran-4-yl)methyl)-8-(imidazo[1,2-a]pyridin-6-yl)-[1,2,4]triazolo[4,3-c]pyrimidin-5-amine], the IC50 was 0.0424 µM in test [1], 0.0941 µM in the test with KARPAS-422 cells and 0.058 µM in test [2].

`Fc1ccc2c(c1CNc1ncc(-c3ccn4ccnc4c3)c3nncn13)CCO2` [N-((5-fluoro-2,3-dihydrobenzofuran-4-yl)methyl)-8-(imidazo[1,2-a]pyridin-7-yl)-[1,2,4]triazolo[4,3-c]pyrimidin-5-amine]: the figures for the IC50 (in test [1]; with KARPAS-422 cells; in test [2]) were 0.015 µM, 0.0165 µM and 0.0056 µM, respectively.

On to `Fc1ccc2c(c1CNc1ncc(-c3cccn4ccnc34)c3nncn13)CCO2` [N-((5-fluoro-2,3-dihydrobenzofuran-4-yl)methyl)-8-(imidazo[1,2-a]pyridin-8-yl)-[1,2,4]triazolo[4,3-c]pyrimidin-5-amine], for which the IC50 in test [1] came out at 0.0044 µM; with KARPAS-422 cells, 0.0015 µM; in test [2] it was 0.0008 µM.
